The target of one assay is T1, HBV polymerase (Hepatitis B virus genotype D subtype ayw, UniProt P03156).
T1 construct: made in house; host or cells: E. coli
In words: Inhibitory activities against HBV polymerase (reverse transcriptase activity) in vitro. The assay is classed as biochemical. Particulars: read-out: Inhibitory activity of HBV-RT (%); for inhibition at 0.01 µg/mL: 0.01 μg/ml; for inhibition at 0.1 µg/mL: 0.1 μg/ml; for inhibition at 1 µg/mL: 1 μg/ml. From the text: Experiment 1:Inhibitory Activities Against HBV Polymerase in vitro
Recently, the inventors of the present invention have produced a recombinant HBV polymerase that is expressed from E.coli transformant, measured its enzyme activity and filed patent applications threrof [Korean Pat. Appl. Nos. 94-3918 and 96-33998].
The inventors have also established a method of measuring the reverse transcriptase activity of HBV polymerase in vitro. The fundamental principle is the same as the ELISA method, and after reacting the substrate with biotin- and DIG-modified nucleotide, a method of recognizing the polymerized substrate as anti-DIG antibody with peroxidase was used.
20 μl of HBV polymerase, 20 μl of reaction mixture and 20 μl of test compound was mixed and reacted at 14° C.~30° C. for 18~24 hours. Then, the inhibitory effect of the test compound against reverse transcriptase activity in the HBV polymerase was examined, compared with the results of control tests without the test compound.

For assay [1], the target named is T2, HIV reverse transcriptase (Human immunodeficiency virus type 1 group M subtype B, UniProt P04585).
T2 construct: purchased Boehringer Mannheim
The assay is described as follows: In vitro inhibition test against HIV reverse transcriptase. Particulars: read-out: Inhibitory activity of HIV-RT (%); for inhibition at 0.1 µg/mL: 0.1 μg/ml; for inhibition at 1 µg/mL: 1 μg/ml. Format: biochemical. On the procedure:
Experiment 2: The in vitro Inhibition Test Against HIV Reverse Transcriptase
The inhibitory activity in vitro was measured using a non-radioactive reverse transcriptase assay Kit (Boehringer Mannheim).
At first, 20 μl(40 ng) of HIV-RT was added to the wells, coated with streptavidin and with the addition of 20 μl reaction mixture containing template/primer hybrid poly(A)/oligo(dT)15 and DIG-(digoxigenin)-dUTP, biotin-dUTP and TTP, 20 μl of test compound was added and reacted at 37° C. for 1 hour. The control without test compound was used for the comparison of related activity. Since DNA containing nucleotide labeled with digoxigenin and biotine was prepared by the action of HIV-RT, it was combined with streptavidin coated at the bottom of the wells. After the reaction was completed, remaining impurities were removed by washing each well with 250 μl buffer solution (pH 7.0) for 30 seconds 5 times and with the addition of 200 μl anti-DIG-POD antibody, the mixture was reacted at 37° C. for 1 hour. For the removal of remaining impurities again, the reacting solution was washed with a buffer solution and with the addition of 200 μl ABTS™ each, a substrate of POD(peroxidase), the solution was reacted at room temperature for 30 minutes. The absorbance was read by ELISA reader at 405 nm for the assay of reverse transcriptase activity and its inhibition activity.

T1 sequence (P03156 whole entry): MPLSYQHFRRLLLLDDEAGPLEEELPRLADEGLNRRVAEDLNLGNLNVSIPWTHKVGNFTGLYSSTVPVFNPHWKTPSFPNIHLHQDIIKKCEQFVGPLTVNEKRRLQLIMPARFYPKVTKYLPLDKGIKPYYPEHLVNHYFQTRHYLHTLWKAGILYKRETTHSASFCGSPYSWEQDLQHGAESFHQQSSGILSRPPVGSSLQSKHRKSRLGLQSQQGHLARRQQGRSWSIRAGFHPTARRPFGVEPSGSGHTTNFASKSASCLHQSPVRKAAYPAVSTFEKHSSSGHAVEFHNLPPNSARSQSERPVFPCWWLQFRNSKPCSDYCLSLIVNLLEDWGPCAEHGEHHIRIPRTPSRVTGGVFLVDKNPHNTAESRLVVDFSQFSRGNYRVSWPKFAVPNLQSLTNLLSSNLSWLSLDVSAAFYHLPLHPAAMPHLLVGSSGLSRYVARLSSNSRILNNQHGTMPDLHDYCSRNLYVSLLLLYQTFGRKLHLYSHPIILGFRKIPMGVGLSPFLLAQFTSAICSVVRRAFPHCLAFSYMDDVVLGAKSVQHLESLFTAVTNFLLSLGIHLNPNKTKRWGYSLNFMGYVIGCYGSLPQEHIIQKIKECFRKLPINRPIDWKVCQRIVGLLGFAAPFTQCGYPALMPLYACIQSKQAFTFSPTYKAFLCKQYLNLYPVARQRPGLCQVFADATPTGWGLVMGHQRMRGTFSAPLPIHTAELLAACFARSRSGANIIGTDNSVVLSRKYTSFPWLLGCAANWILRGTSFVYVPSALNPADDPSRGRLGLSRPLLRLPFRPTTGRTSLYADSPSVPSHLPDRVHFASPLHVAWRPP

Consider `CC(C)Nc1cccnc1N1CCN(C(=O)c2ccc(C(=O)NCCO)cn2)CC1` [Exam. 1, 5-[N-(2-hydroxyethyl)carbamoyl]-2-[1-[3-(isopropylamino)-2-pyridyl]piperazin-4-yl-carbonyl]pyridine], for which, on HBV polymerase, the inhibition at 0.01 µg/mL stood at 30%, the inhibition at 0.1 µg/mL turned out to be 51% and the inhibition at 1 µg/mL amounted to 54%.
In the same order, the values of `CC(C)Nc1cccnc1N1CCN(C(=O)c2ccc(C(=O)NCCCO)cn2)CC1` [Exam. 2, 5-[N-(3-Hydroxypropyl)carbamoyl]-2-[1-[3-(isopropylamino)-2-pyridyl]piperazine-4-yl-carbonyl]pyridine] are 49%, 60% and 71%.
In the same order, the values of `CC(C)Nc1cccnc1N1CCN(C(=O)c2ccc(C(=O)N[C@H](C)CO)cn2)CC1` [Exam. 3, 5-[N-[(1R)-2-hydroxy-1-methylethyl]carbamoyl]-2-[1-[3-(isopropylamino)-2-pyridyl]piperazin-4-yl-carbonyl]pyridine] are 41%, 57% and 74%.
Regarding `CC(C)Nc1cccnc1N1CCN(C(=O)c2ccc(C(=O)N[C@@H](C)CO)cn2)CC1` [Exam. 4, 5-[N-[(1S)-2-hydroxy-1-methylethyl]carbamoyl]-2-[1-[3-(isopropylamino)-2-pyridyl]piperazin-4-yl-carbonyl]pyridine], on HBV polymerase, the inhibition at 0.01 µg/mL amounted to 30%, the inhibition at 0.1 µg/mL was determined as 39% and the inhibition at 1 µg/mL was 56%.
Regarding `CC(C)Nc1cccnc1N1CCN(C(=O)c2ccc(C(=O)NC(C)(C)CO)cn2)CC1` [Exam. 6, 5-[N-(1,1-dimethyl-2-hydroxyethyl)carbamoyl]-2-[1-[3-(isopropylamino)-2-pyridyl]piperazin-4-yl-carbonyl]pyridine], on HBV polymerase, the inhibition at 0.01 µg/mL amounted to 62%, the inhibition at 0.1 µg/mL is 65% and the inhibition at 1 µg/mL is 80%. In addition, in assay [1], the inhibition at 0.1 µg/mL worked out at 48% and the inhibition at 1 µg/mL was found to be 70%.
Take `CC[C@H](CO)NC(=O)c1ccc(C(=O)N2CCN(c3ncccc3NC(C)C)CC2)nc1` [Exam. 7, 5-[N-[(1R)-1-ethyl-2-hydroxyethyl]carbamoyl]-2-[1-[3-(isopropylamino)-2-pyridyl]piperazin-4-yl-carbonyl]pyridine]: at HBV polymerase, the inhibition at 0.01 µg/mL was 53%, the inhibition at 0.1 µg/mL was 64% and the inhibition at 1 µg/mL turned out to be 70%.
With `CC(C)Nc1cccnc1N1CCN(C(=O)c2ccc(C(=O)NC(CO)CO)cn2)CC1` [Exam. 13, 5-[N-[Bis(hydroxymethyl)methyl]carbamoyl]-2-[1-[3-(isopropylamino)-2-pyridyl]piperazin-4-yl-carbonyl]pyridine], at HBV polymerase, the inhibition at 0.01 µg/mL stood at 51%, the inhibition at 0.1 µg/mL was 56% and the inhibition at 1 µg/mL came to 72%. In assay [1], the inhibition at 0.1 µg/mL is 61% and the inhibition at 1 µg/mL amounted to 80%.
Take `CCN(CCO)C(=O)c1ccc(C(=O)N2CCN(c3ncccc3NC(C)C)CC2)nc1` [Exam. 14, 5-[N-ethyl-N-(2-hydroxyethyl)carbamoyl]-2-[1-[3-(isopropylamino)-2-pyridyl]piperazin-4-yl-carbonyl]pyridine]: at HBV polymerase, the inhibition at 0.1 µg/mL is 10% and the inhibition at 1 µg/mL was determined as 35%.
`CC(C)Nc1cccnc1N1CCN(C(=O)c2ccc(C(=O)N(CCO)CCO)cn2)CC1` [Exam. 16, 5-[N,N-bis(2-hydroxyethyl)carbamoyl]-2-[1-[3-(isopropylamino)-2-pyridyl]piperazin-4-yl-carbonyl]pyridine]: on HBV polymerase, the inhibition at 0.01 µg/mL worked out at 51%, the inhibition at 0.1 µg/mL came to 60% and the inhibition at 1 µg/mL turned out to be 70%. In addition, in assay [1], the inhibition at 0.1 µg/mL was found to be 47% and the inhibition at 1 µg/mL amounted to 68%.
Regarding `CC(C)Nc1cccnc1N1CCN(C(=O)c2ccc(C(=O)N(CCO)c3ccccc3)cn2)CC1` [Exam. 17], on HBV polymerase, the inhibition at 0.01 µg/mL stood at 42%, the inhibition at 0.1 µg/mL worked out at 53% and the inhibition at 1 µg/mL amounted to 66%.
The matching figures for `CCNc1cccnc1N1CCN(C(=O)c2ccc(C(=O)NCCO)cn2)CC1` [Exam. 18, 2-[1-[3-(ethylamino)-2-pyridyl]piperazin-4-yl-carbonyl]-5-[N-(2-hydroxyethyl)carbamoyl]pyridine]: 52%, 69% and 84%.
In the same order, the values of `CCNc1cccnc1N1CCN(C(=O)c2ccc(C(=O)NC(C)(C)CO)cn2)CC1` [Exam. 19, 5-[N-(1,1-dimethyl-2-hydroxyethyl)carbamoyl]-2-[1-[3-(ethylamino)-2-pyridyl]piperazin-4-yl-carbonyl]pyridine] are 32%, 56% and 72%.
On to `Nc1cccnc1N1CCN(C(=O)c2ccc(C(=O)NCCO)cn2)CC1` [Exam. 20, 2-[1-(3-Amino-2-pyridyl)piperazine4-yl-carbonyl]-5-[N-(2-hydroxyethyl)carbamoyl]pyridine], for which, on HBV polymerase, the inhibition at 0.01 µg/mL is 54%, the inhibition at 0.1 µg/mL was found to be 67% and the inhibition at 1 µg/mL worked out at 74%.
The matching figures for `CC(C)(CO)NC(=O)c1ccc(C(=O)N2CCN(c3ncccc3N)CC2)nc1` [Exam. 21, 2-[1-(3-amino-2-pyridyl)piperazin-4-yl-carbonyl]-5-[N-(1,1-dimethyl-2-hydroxyethyl)carbamoyl]pyridine]: 38%, 62% and 70%.
As to `CC(C)CNc1cccnc1N1CCN(C(=O)c2ccc(C(=O)NCCO)cn2)CC1` [Exam. 22], at HBV polymerase, the inhibition at 0.01 µg/mL was found to be 54%, the inhibition at 0.1 µg/mL worked out at 60% and the inhibition at 1 µg/mL came out at 86%. Moreover, in assay [1], the inhibition at 0.1 µg/mL is 50% and the inhibition at 1 µg/mL was determined as 60%.
For the compound `CC(C)CNc1cccnc1N1CCN(C(=O)c2ccc(C(=O)NC(C)(C)CO)cn2)CC1` [Exam. 23, 5-[N-(1,1-dimethyl-2-hydroxyethyl)carbamoyl]-2-[1-[3-(isobutylamino)-2-pyridyl]piperazin-4-yl-carbonyl]pyridine], on HBV polymerase, the inhibition at 0.01 µg/mL was 63%, the inhibition at 0.1 µg/mL stood at 71% and the inhibition at 1 µg/mL was found to be 90%. Besides, in assay [1], the inhibition at 0.1 µg/mL was 46% and the inhibition at 1 µg/mL stood at 62%.
The matching figures for `CC(C)NC(=O)c1ccc(C(=O)N2CCN(c3ncccc3NC(C)C)CC2)nc1` [Exam. 24, 2-[1-[3-(isopropylamino)-2-pyridyl]piperazin-4-yl-carbonyl]-5-(N-isopropylcarbamoyl)pyridine]: 23%, 51%, 65%, 30% and 66%.
In the same order, the values of `CCNc1cccnc1N1CCN(C(=O)c2ccc(C(=O)NC(C)C)cn2)CC1` [Exam. 25, 2-[1-[3-(ethylamino)-2-pyridyl]piperazin-4-yl-carbonyl]-5-(N-isopropylcarbamoyl)pyridine] are 54%, 67%, 85%, 52% and 75%.
In the same order, the values of `CC(C)CNc1cccnc1N1CCN(C(=O)c2ccc(C(=O)NC(C)C)cn2)CC1` [Exam. 26, 2-[1-[3-(isobutylamino)-2-pyridyl]piperazin-4-yl-carbonyl]-5-(N-isopropylcarbamoyl)pyridine] are 58%, 66%, 90%, 45% and 60%.
Regarding `CC(C)NC(=O)c1ccc(C(=O)N2CCN(c3ncccc3N)CC2)nc1` [Exam. 27, 2-[1-(3-amino-2-pyridyl)piperazin-4-yl-carbonyl]-5-(N-isopropylcarbamoyl)pyridine], on HBV polymerase, the inhibition at 0.01 µg/mL was 43%, the inhibition at 0.1 µg/mL amounted to 62% and the inhibition at 1 µg/mL is 79%. In assay [1], the inhibition at 0.1 µg/mL is 54% and the inhibition at 1 µg/mL worked out at 70%.
On to `CC(C)CNc1cccnc1N1CCN(C(=O)c2ccc(C(=O)Nc3ncccc3O)cn2)CC1` [Exam. 86], for which, at HBV polymerase, the inhibition at 0.01 µg/mL worked out at 13%, the inhibition at 0.1 µg/mL was 46% and the inhibition at 1 µg/mL amounted to 71%.

The values above are taken from patent US6306860A, “2,5-pyridinedicarboxylic acid derivatives” (Dong Wha Pharm. Inc. Co., Ltd., priority 1998, dated 2001).
